pIC50: −log10 of the molar value.
How the values were obtained:
Assay type in all cases: cell-based
HeLa = assay: Proliferation assay (crystal violet), HeLa; conditions: Homo sapiens, HeLa, 96 h, HeLa cells; 4 days incubation; crystal violet staining; read-out: IC50 inhibition of proliferation, HeLa
Outline: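 Seed 1000–5000 cells/well, 10% FCS; 24 h later replace medium and add compound (0.001–10 μM, 0.5% DMSO); incubate 4 d; glutaraldehyde fix, 0.1% crystal violet pH 3.0, elute with 10% acetic acid; A595; 4-parameter IC50.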

[1] = tested on: human cervical tumor cell line HeLa (ATCC CCL-2); assay: SAC-Formation - Paclitaxel-Induced Assay; conditions: Homo sapiens, HeLa, 24 h, HeLa cells, paclitaxel 0.05 μM, test range 0.005 μM-20 μM, read-out: IC50 [mol/l] SAC-Formation - Paclitaxel-Induced Assay
Outline: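 HeLa cells incubated overnight at 37° C, then given paclitaxel (0.05 μM final) plus test compound (0.005–20 μM, 0.5% DMSO) together for 24 h at 37° C. Fixed cells stained for phospho-histone H3 Ser10 (mitotic cells) and Hoechst 33342 (cell count); imaging-derived mitotic index fitted by four-parameter Hill equation.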

[2] = tested on: human cervical tumor cell line HeLa (ATCC CCL-2); assay: SAC-Formation - Nocodazole-Induced Assay; conditions: Homo sapiens, HeLa, 24 h, HeLa cells, nocodazole 0.1 μg/ml together with test compound, decrease of mitotic cells (phospho-histone H3 Ser10)
Outline: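 HeLa cells, plated overnight, were treated 24 h at 37 °C with nocodazole (0.1 μg/ml final) plus test compound (0.005–20 μM, 0.5% DMSO) added at the same time. After fixation, anti-phospho-histone H3 Ser10 and Hoechst staining gave the mitotic cell fraction by imaging. Values came from four-parameter Hill fits.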

pIC50 (HeLa)	pIC50 [1]	pIC50 [2]	SMILES
5.35	5.82	6.41	Cc1nsc(Nc2cnc3ccccc3n2)c1C(=O)Nc1cccc(C(=O)N2CCN(c3cccc(F)c3)CC2)c1 [Example 87, N-(3-{[4-(3-Fluorophenyl)piperazin-1-yl]carbonyl}phenyl)-3-methyl-5-(quinoxalin-2-ylamino)-1,2-thiazole-4-carboxamide]
5.09	5.13	6.39	Cc1nsc(Nc2cnc3ccccc3n2)c1C(=O)Nc1cccc(C(=O)Nc2ccc(N3CCOCC3)cc2)c1 [Example 65, 3-Methyl-N-(3-{[4-(morpholin-4-yl)phenyl]carbamoyl}phenyl)-5-(quinoxalin-2-ylamino)-1,2-thiazole-4-carboxamide]
